Numbered stars: 1 amine (or outer) side, 2 acyl side, 3 side chain; on linkers, the order of the positions; unused ones are H or OH. Bridge positions count the residues as written; N and C are the ends. Square brackets hold non-standard residues; d marks the D form. Peptide text beside a SMILES is read from it. * marks the point of attachment. X40 = O=C([C@H](Cc1ccc(-c2cccc(O)c2)cc1)N[*:1])[*:2]; Ala(1H-tetrazol-5-yl) = N[C@@H](Cc1nnn[nH]1)C(=O)O; Phe(4-COOH) = N[C@@H](Cc1ccc(C(=O)O)cc1)C(=O)O; Bip = N[C@@H](Cc1ccc(-c2ccccc2)cc1)C(=O)O; Phe(3-OMe) = COc1cccc(C[C@H](N)C(=O)O)c1; Phe(3-Me) = Cc1cccc(C[C@H](N)C(=O)O)c1; Val(3-OH) = CC(C)(O)[C@H](N)C(=O)O; 3Pal = N[C@@H](Cc1cccnc1)C(=O)O; Cha = N[C@@H](CC1CCCCC1)C(=O)O; NMeNva = CCC[C@H](NC)C(=O)O; Carboxymethyl = O=C(O)C*; NMeA = CN[C@@H](C)C(=O)O; Dab = NCC[C@H](N)C(=O)O; Dap = NC[C@H](N)C(=O)O
Target: T1, PE-labeled human PD-L1-Ig binding to Jurkat cell line over-expressing human PD-1 (Jurkat-PD-1) (Homo sapiens, UniProt Q15116)
T1 construct: expressed in transfected cells; host or cells: Jurkat
T1 sequence (Q15116 25-288): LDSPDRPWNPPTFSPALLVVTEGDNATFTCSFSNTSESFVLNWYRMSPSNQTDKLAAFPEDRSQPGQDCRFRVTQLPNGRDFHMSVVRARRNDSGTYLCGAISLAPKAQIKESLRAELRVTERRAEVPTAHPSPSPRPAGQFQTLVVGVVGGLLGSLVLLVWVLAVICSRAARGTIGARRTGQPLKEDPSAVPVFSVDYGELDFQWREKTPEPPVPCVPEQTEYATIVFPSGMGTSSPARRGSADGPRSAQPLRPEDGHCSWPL
Assay: Jurkat-PD-1 Cell Binding High-Content Screening Assay (CBA): Method 1
Conditions: Jurkat-hPD-1 cells, PE-labeled PD-L1-Ig 20 nM final; read-out: Jurkat HPDL1 PD1 IC50 (uM) (Method 1)

Compound	IC50 [µM]
CC(C)C[C@@H]1NC(=O)[C@H](CCN)NC(=O)[C@@H](CC(C)C)NC(=O)[C@H](C)N(C)C(=O)[C@H](CCCNC(=N)N)NC(=O)[C@H](Cc2ccc(-c3cccc(O)c3)cc2)NC(=O)[C@H](C(C)C)NC(=O)[C@H](Cc2c[nH]c3ccccc23)NC(=O)[C@H](CC(=O)O)NC(=O)[C@H](Cc2ccc(O)cc2)NC(=O)[C@H](CC(N)=O)NC(=O)CSC[C@@H](C(=O)N[C@@H](C)C(N)=O)NC(=O)[C@H]([C@@H](C)O)NC(=O)[C@H](C(C)C)NC1=O [Compound 1212] ({CH2CO}-NYDWV[X40]R[NMeA][dL][Dab]LVTCA-NH2; thioether N-14)	0.69
CC(C)C[C@@H]1NC(=O)CSC[C@@H](C(=O)N[C@@H](C)C(N)=O)NC(=O)[C@H]([C@@H](C)O)NC(=O)[C@H](C(C)C)NC(=O)[C@H](CC(C)C)NC(=O)[C@H](CCN)NC(=O)[C@@H](CC(C)C)NC(=O)[C@H](C)N(C)C(=O)[C@H](CCCNC(=N)N)NC(=O)[C@H](Cc2ccc(-c3ccccc3)cc2)NC(=O)[C@H](C(C)C)NC(=O)[C@H](Cc2c[nH]c3ccccc23)NC(=O)[C@H](CC(=O)O)NC(=O)[C@H](Cc2ccc(O)cc2)NC1=O [Compound 1039] ({CH2CO}-LYDWV[Bip]R[NMeA][dL][Dab]LVTCA-NH2; thioether N-14)	0.08
CC(C)C[C@@H]1NC(=O)[C@H](Cc2c[nH]c3ccccc23)NC(=O)[C@H](CC(=O)O)NC(=O)[C@H](Cc2ccc(O)cc2)NC(=O)[C@H](CC(N)=O)NC(=O)CSC[C@@H](C(=O)NCC(N)=O)NC(=O)[C@H](CO)NC(=O)[C@H](C(C)C)NC(=O)[C@H](CC(C)C)NC(=O)[C@H](CC(N)=O)NC(=O)[C@H](CC(N)=O)NC(=O)[C@H](C)N(C)C(=O)[C@H](C(C)C)NC(=O)[C@H](Cc2ccc(-c3ccccc3)cc2)NC1=O [Compound 1822] ({CH2CO}-NYDWL[Bip]V[NMeA]NNLVSCG-NH2; thioether N-14)	0.58
COc1cccc(C[C@@H]2NC(=O)[C@H](CN)NC(=O)CSC[C@@H](C(=O)NCC(N)=O)NC(=O)[C@H](CO)NC(=O)[C@H](C(C)C)NC(=O)[C@H](CC(C)C)NC(=O)[C@H](CC(N)=O)NC(=O)[C@@H](CC(C)C)NC(=O)[C@H](C)N(C)C(=O)[C@H](C(C)C)NC(=O)[C@H](Cc3ccc(-c4ccccc4)cc3)NC(=O)[C@H](CC(C)C)NC(=O)[C@H](Cc3c[nH]c4ccccc34)NC(=O)[C@H](CC(=O)O)NC2=O)c1 [Compound 1522] ({CH2CO}-[Dap][Phe(3-OMe)]DWL[Bip]V[NMeA][dL]NLVSCG-NH2; thioether N-14)	0.05
CCC[C@H]1C(=O)N[C@H](CC(C)C)C(=O)N[C@@H](CCN)C(=O)N[C@@H](CC(C)C)C(=O)N[C@@H](C(C)C)C(=O)N[C@@H]([C@@H](C)O)C(=O)N[C@H](C(=O)N[C@@H](C)C(N)=O)CSCC(=O)N[C@@H](CC(N)=O)C(=O)N[C@@H](Cc2ccc(O)cc2)C(=O)N[C@@H](CC(=O)O)C(=O)N[C@@H](Cc2c[nH]c3ccccc23)C(=O)N[C@@H](C(C)C)C(=O)N[C@@H](Cc2ccc(-c3ccccc3)cc2)C(=O)N[C@@H](C(C)C)C(=O)N1C [Compound 1369] ({CH2CO}-NYDWV[Bip]V[NMeNva][dL][Dab]LVTCA-NH2; thioether N-14)	0.03
CC(C)C[C@@H]1NC(=O)[C@H](CCN)NC(=O)[C@@H](CC(C)C)NC(=O)[C@H](C)N(C)C(=O)[C@H](CCCNC(=N)N)NC(=O)[C@H](Cc2ccc(-c3ccccc3)cc2)NC(=O)[C@H](C(C)C)NC(=O)[C@H](Cc2c[nH]c3ccccc23)NC(=O)[C@H](CC(=O)O)NC(=O)[C@H](Cc2ccc(C(=O)O)cc2)NC(=O)[C@H](CC(N)=O)NC(=O)CSC[C@@H](C(=O)N[C@@H](C)C(N)=O)NC(=O)[C@H]([C@@H](C)O)NC(=O)[C@H](C(C)C)NC1=O [Compound 1452] ({CH2CO}-N[Phe(4-COOH)]DWV[Bip]R[NMeA][dL][Dab]LVTCA-NH2; thioether N-14)	0.04

Further molecules by falling IC50, results first:

IC50 [µM]	Compound
0.03	CC(C)C[C@@H]1NC(=O)[C@H](Cc2c[nH]c3ccccc23)NC(=O)[C@H](Cc2nn[nH]n2)NC(=O)[C@H](Cc2ccc(O)cc2)NC(=O)[C@H](Cc2ccccc2)NC(=O)CSC[C@@H](C(=O)N[C@@H](C)C(N)=O)NC(=O)[C@H](CO)NC(=O)[C@H](C(C)C)NC(=O)[C@H](CC(C)C)NC(=O)[C@H](CC(N)=O)NC(=O)[C@@H](C)NC(=O)[C@H](C)N(C)C(=O)[C@H](C(C)C)NC(=O)[C@H](Cc2ccc(-c3ccccc3)cc2)NC1=O [Compound 1540] ({CH2CO}-FY[Ala(1H-tetrazol-5-yl)]WL[Bip]V[NMeA][dA]NLVSCA-NH2; thioether N-14)
0.01	CC(C)C[C@@H]1NC(=O)[C@H](CCCNC(=N)N)NC(=O)[C@@H](CC(C)C)NC(=O)[C@H](C)N(C)C(=O)[C@H](CCCNC(=N)N)NC(=O)[C@H](Cc2ccc(-c3ccccc3)cc2)NC(=O)[C@H](C(C)C)NC(=O)[C@H](Cc2c[nH]c3ccccc23)NC(=O)[C@H](CC(=O)O)NC(=O)[C@H](Cc2ccc(O)cc2)NC(=O)[C@H](Cc2cccnc2)NC(=O)CSC[C@@H](C(=O)N[C@@H](C)C(N)=O)NC(=O)[C@H]([C@@H](C)O)NC(=O)[C@H](C(C)C)NC1=O [Compound 1049] ({CH2CO}-[3Pal]YDWV[Bip]R[NMeA][dL]RLVTCA-NH2; thioether N-14)
0.01	CC(C)C[C@@H]1NC(=O)[C@H](Cc2c[nH]c3ccccc23)NC(=O)[C@H](CC(=O)O)NC(=O)[C@H](Cc2ccc(C(=O)O)cc2)NC(=O)[C@H](Cc2ccc(OCC(=O)O)cc2)NC(=O)CSC[C@@H](C(=O)NCC(N)=O)NC(=O)[C@H](CO)NC(=O)[C@H](C(C)C)NC(=O)[C@H](CC(C)C)NC(=O)[C@H](CC(N)=O)NC(=O)[C@@H](CC(C)C)NC(=O)[C@H](C)N(C)C(=O)[C@H](C(C)C)NC(=O)[C@H](Cc2ccc(-c3ccccc3)cc2)NC1=O [Compound 1548] ({CH2CO}-Y(Carboxymethyl)[Phe(4-COOH)]DWL[Bip]V[NMeA][dL]NLVSCG-NH2; thioether N-14)
0.01	CC(C)C[C@@H]1NC(=O)[C@H](Cc2c[nH]c3ccccc23)NC(=O)[C@H](CC(=O)O)NC(=O)[C@H](Cc2ccc(OCC(=O)O)cc2)NC(=O)[C@H](Cc2ccccc2)NC(=O)CSC[C@@H](C(=O)N[C@@H](CC(N)=O)C(N)=O)NC(=O)[C@H](Cc2cnc[nH]2)NC(=O)[C@H](C(C)C)NC(=O)[C@H](CC(C)C)NC(=O)[C@H](CCN)NC(=O)[C@@H](CC(C)C)NC(=O)[C@H](C)N(C)C(=O)[C@H](C(C)C)NC(=O)[C@H](Cc2ccc(-c3ccccc3)cc2)NC1=O [Compound 2098] ({CH2CO}-FY(Carboxymethyl)DWL[Bip]V[NMeA][dL][Dab]LVHCN-NH2; thioether N-14)
0.01	CC[C@H](C)[C@@H]1NC(=O)[C@H](Cc2ccc(-c3ccccc3)cc2)NC(=O)[C@H](C(C)C)NC(=O)[C@H](Cc2cccc(C)c2)NC(=O)[C@H](CC(=O)O)NC(=O)[C@H](Cc2ccc(O)cc2)NC(=O)[C@H](CC(N)=O)NC(=O)CSC[C@@H](C(=O)N[C@H](C)C(N)=O)NC(=O)[C@H]([C@@H](C)O)NC(=O)[C@H](C(C)(C)O)NC(=O)[C@H](CC2CCCCC2)NC(=O)[C@H](CCN)NC(=O)[C@@H](CC(C)C)NC(=O)[C@H](C)N(C)C1=O [Compound 1690] ({CH2CO}-NYD[Phe(3-Me)]V[Bip]I[NMeA][dL][Dab][Cha][Val(3-OH)]TC[dA]-NH2; thioether N-14)

Source: patent publication US20240409585A1, “MACROCYCLIC IMMUNOMODULATORS” (priority 2021, published 2024)
